Test results as given in US20100035932A1, “NOVEL FORMYL PEPTIDE RECEPTOR LIKE 1 AGONISTS THAT INDUCE MACROPHAGE TUMOR NECROSIS FACTOR ALPHA AND COMPUTATIONAL STRUCTURE-ACTIVITY RELATIONSHIP ANALYSIS OF THEREOF” (priority 2008, published 2010).
Where two headings read alike, the source gives them in different places.

Experiments:
[1] = system: human neutrophils; test: Ca2+ mobilization in human neutrophils (FLIPR Calcium 3); conditions: Neutrophil
[2] = system: murine peritoneal macrophages; test: TNF-α production in murine peritoneal macrophages (ELISA); assay type: cell-based; conditions: 24 hr, various concentrations
Procedure: Bone marrow leukocytes were flushed from tibias and femurs of BALB/c mice with HBSS− supplemented with 0.1% BSA and 1% glucose and the neutrophils were purified on Percoll density gradients, as previously described (Schepetkin et al., 2007). Peritoneal macrophages were isolated from BALB/c mice 4 days after intraperitoneal injection of 1 ml saline containing 100 μg concanavalin A, as described previously (Schepetkin et al., 2005). Peritoneal exudate cells were suspended in RPMI 1640 containing 10% (v/v) FBS with antibiotics (penicillin and streptomycin) and incubated at 37° C. in 100 mm tissue culture dishes for 1 h. Adherent peritoneal macrophages were harvested and cultured with the compounds under investigation for 24 hr at 37° C. and 5% CO2.
(§1) Cells were treated for 24 hr with DMSO control, test compound, or LPS and mouse TNF-α or IL-6 and human TNF-α enzyme-linked immunosorbent assay (ELISA) kits (BD Biosciences Pharmigen) were used to detect these cytokines in the cell supernatants. Cytokine concentration was determined by extrapolation from the TNF-α/IL-6 standard curve, according to the manufacturer's protocol.

[3] = system: J774.A1 macrophages; test: cells; conditions: Mus musculus, J774.A1, read-out: Ca2+ Mobilization EC50, Murine Mφ
Procedure: Murine macrophage J774.A1 cells were cultured in DMEM supplemented with 10% (v/v) heat-inactivated fetal bovine serum (FBS), 10 mM HEPES, 100 μg/ml streptomycin, and 100 U/ml penicillin. Cells were grown to confluence in sterile tissue culture flasks and gently detached by scraping. […] All cell cultures were grown at 37° C. in a humidified atmosphere containing 5% CO2. Cell number and viability were assessed microscopically using trypan blue exclusion.

[4] = system: J774.A1 macrophages; test: TNF-α production in J774.A1 macrophages (ELISA); assay type: cell-based, murine; conditions: for fold induction at 50 µM: Mus musculus, J774.A1, 24 h; for Effect of Boc-2 (FPR/FPRL1 antagonist) on compound-induced TNF-α production: pretreated 5 min with Boc 2 (40 μM); for Effect of Boc-2 (FPR/FPRL1 antagonist) on compound-induced TNF-α production / Effect of WRW4 (FPRL1 antagonist) on compound-induced TNF-α production: then 50 μM compound 24 hr; for Effect of WRW4 (FPRL1 antagonist) on compound-induced TNF-α production: pretreated 5 min with WRW4 (10 μM); for Effect of PTX on induced TNF-α production: pretreated 30 min with PTX (0.4 and 1 μg/ml), then Compound 50 μM or LPS 50 ng/ml for 12 hr; for Effect of ActD or CHX on compound-induced TNF-α production: pretreated with ActD 1 μg/ml or CHX 5 μg/ml 30 min, then 50 μM compound 12 hr
[5] = system: murine neutrophils; test: Chemotaxis assay, murine neutrophils; assay type: cell-based; conditions: percent of response induced by 50 nM KC
[6] = system: human monocytic cells THP-1; test: TNF-α production in THP-1 cells (ELISA); assay type: cell-based; conditions: 24 hr, various concentrations
Procedure: Murine macrophage J774.A1 cells were cultured in DMEM supplemented with 10% (v/v) heat-inactivated fetal bovine serum (FBS), 10 mM HEPES, 100 μg/ml streptomycin, and 100 U/ml penicillin. Cells were grown to confluence in sterile tissue culture flasks and gently detached by scraping. Human monocyte/macrophage MonoMac6 cells (DSMZ, Germany) were cultured in RPMI 1640 supplemented with 10% (v/v) FBS, 10 μg/ml bovine insulin, 100 μg/ml streptomycin, and 100 U/ml penicillin. Rat basophilic leukemia (RBL-2H3) cells transfected with human FPR (RBL-FPR) or FPRL1 (RBL-FPRL1) were cultured in DMEM supplemented with 20% (v/v) FBS, 10 mM HEPES, 100 μg/ml streptomycin, and 100 U/ml penicillin, as described previously (Nanamori et al., 2004). Human monocytic THP-1 cells were cultured in RPMI 1640 medium supplemented with 10% (v/v) FBS, 100 μg/ml streptomycin, and 100 U/ml penicillin. […] Cell number and viability were assessed microscopically using trypan blue exclusion.
as §1

[7] = system: J774.A1 macrophages; test: ROS production in J774.A1 macrophages (L-012 luminescence); assay type: cell-based; conditions: Mus musculus, concentration that enhanced ROS production by 50% above background, read-out: ROS Production AC50, Murine Mφ
Procedure: Murine macrophage J774.A1 cells were cultured in DMEM supplemented with 10% (v/v) heat-inactivated fetal bovine serum (FBS), 10 mM HEPES, 100 μg/ml streptomycin, and 100 U/ml penicillin. Cells were grown to confluence in sterile tissue culture flasks and gently detached by scraping. Human monocyte/macrophage MonoMac6 cells (DSMZ, Germany) were cultured in RPMI 1640 supplemented with 10% (v/v) FBS, 10 μg/ml bovine insulin, 100 μg/ml streptomycin, and 100 U/ml penicillin. Rat basophilic leukemia (RBL-2H3) cells transfected with human FPR (RBL-FPR) or FPRL1 (RBL-FPRL1) were cultured in DMEM supplemented with 20% (v/v) FBS, 10 mM HEPES, 100 μg/ml streptomycin, and 100 U/ml penicillin, as described previously (Nanamori et al., 2004). Human monocytic THP-1 cells were cultured in RPMI 1640 medium supplemented with 10% (v/v) FBS, 100 μg/ml streptomycin, and 100 U/ml penicillin. All cell cultures were grown at 37° C. in a humidified atmosphere containing 5% CO2. Cell number and viability were assessed microscopically using trypan blue exclusion.
J774.A1 macrophages were plated at density of 1.5×10^5 cells/well in wells of 96-well flat-bottom white microtiter plates (Corning Incorporated, Costar). […] After 5 min, the media was replaced by HBSS+ containing 4 μM L-012 and 8 μg/ml HRP, and luminescence was monitored for 120 min (2-min intervals) at 37° C. using a Fluoroscan Ascent FL microtiter plate reader (Thermo Electron, Waltham, Mass.). The curve of light intensity (in relative luminescence units) was plotted against time, and the area under the curve was calculated as total luminescence. The percent activation of ROS was calculated as follows: % activation=(sample-DMSO control)/DMSO control×100. The minimal compound concentration that enhanced ROS production by 50% above background control cells (AC50) was determined by graphing the % activation of ROS vs. log [test compound]. Each curve was determined using five to seven compound concentrations. […] The results were analysed as described above to determine % activation and AC50 values.

[8] = system: J774.A1 macrophages; test: IL-6 production in J774.A1 macrophages (ELISA); assay type: cell-based, murine; conditions: J774.A1, 24 hr
Procedure: as §1
(§2) For treatments, cells were plated in 96-well microtiter plates at 2×10^5 cells/well (J774.A1, MonoMac6) or 6×10^4 cells/well (human monocyte-derived macrophages) using their respective culture media, except FBS was reduced to 3% (v/v). After incubation overnight (5% CO2, 37° C.), the media were removed and replaced with fresh media containing test compounds.

[9] = system: human monocyte-derived macrophages; test: TNF-α production in human monocyte-derived macrophages (ELISA); assay type: cell-based; conditions: 24 hr, various concentrations
Procedure: as §1, §2

[10] = system: human neutrophils; test: Chemotaxis assay, human neutrophils; assay type: cell-based; conditions: percent of response induced by 50 nM IL-8
[11] = system: human neutrophils; test: ROS production in human neutrophils (L-012 luminescence); assay type: cell-based; conditions: Neutrophil, concentration that enhanced ROS production by 50% above background, read-out: ROS Production AC50, Human PMN
Procedure: J774.A1 macrophages were plated at density of 1.5×10^5 cells/well in wells of 96-well flat-bottom white microtiter plates (Corning Incorporated, Costar). After 16 hr (5% CO2, 37° C.), the media was aspirated, and test compounds or vehicle (final DMSO concentration of 1%) were added in fresh media (DMEM without phenol red, supplemented with 3% (v/v) FBS). After 5 min, the media was replaced by HBSS+ containing 4 μM L-012 and 8 μg/ml HRP, and luminescence was monitored for 120 min (2-min intervals) at 37° C. using a Fluoroscan Ascent FL microtiter plate reader (Thermo Electron, Waltham, Mass.). The curve of light intensity (in relative luminescence units) was plotted against time, and the area under the curve was calculated as total luminescence. The percent activation of ROS was calculated as follows: % activation=(sample-DMSO control)/DMSO control×100. The minimal compound concentration that enhanced ROS production by 50% above background control cells (AC50) was determined by graphing the % activation of ROS vs. log [test compound]. Each curve was determined using five to seven compound concentrations. Human neutrophils were plated at density of 5×10^5 cells/well in wells of 96-well flatbottom white microtiter plates, and compounds under investigation or vehicle (final DMSO concentration of 1%) were added. After 5 min, the media was replaced by HBSS+ containing […] L-012, and luminescence was monitored for 120 min (2-min intervals) at 37° C. using a Fluoroscan Ascent FL microtiter plate reader. The results were analysed as described above to determine % activation and AC50 values.

[12] = molecular target: T1, FPRL1 (Homo sapiens, UniProt P25090); test: Ca2+ mobilization in RBL-FPRL1 cells; assay type: cell-based
T1 construct: expressed in transfected cells; host or cells: rat basophilic leukemia RBL-2H3 cells (RBL-FPRL1)
T1 sequence (P25090 1-351): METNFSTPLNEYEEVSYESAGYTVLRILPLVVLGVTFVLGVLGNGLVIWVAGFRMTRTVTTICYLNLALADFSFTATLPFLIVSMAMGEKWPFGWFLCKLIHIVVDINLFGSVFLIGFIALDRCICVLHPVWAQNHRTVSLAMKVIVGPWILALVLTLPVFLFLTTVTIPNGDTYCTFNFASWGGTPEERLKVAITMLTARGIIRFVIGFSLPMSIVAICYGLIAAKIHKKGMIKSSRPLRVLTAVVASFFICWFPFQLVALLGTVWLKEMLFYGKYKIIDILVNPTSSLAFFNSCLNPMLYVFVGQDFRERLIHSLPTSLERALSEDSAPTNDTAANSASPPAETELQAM

[13] = system: J774.A1 cells; test: Cytotoxicity assay (CellTiter-Glo); assay type: cell-based, murine; conditions: J774.A1, 24 hr
Procedure: Cytotoxicity was analyzed with a CellTiter-Glo Luminescent Cell Viability Assay Kit (Promega, Inc., Madison, Wis.), according to the manufacturer's protocol. Briefly, J774.A1 cells were cultured at a density of 3×10^4 cells/well with the test compounds for 24 hr at 37° C. and 5% CO2, substrate was added, and luminescence signal in the samples was analyzed with a Fluoroscan Ascent FL.

[14] = system: human MonoMac6 macrophages; test: TNF-α production in MonoMac6 cells (ELISA); assay type: cell-based; conditions: 24 hr, various concentrations
[15] = molecular target: T2, human FPR (Homo sapiens, UniProt P21462); test: Ca2+ mobilization in RBL-FPR cells; assay type: cell-based
T2 construct: expressed in transfected cells; host or cells: rat basophilic leukemia RBL-2H3 cells (RBL-FPR)
T2 sequence (P21462 1-350): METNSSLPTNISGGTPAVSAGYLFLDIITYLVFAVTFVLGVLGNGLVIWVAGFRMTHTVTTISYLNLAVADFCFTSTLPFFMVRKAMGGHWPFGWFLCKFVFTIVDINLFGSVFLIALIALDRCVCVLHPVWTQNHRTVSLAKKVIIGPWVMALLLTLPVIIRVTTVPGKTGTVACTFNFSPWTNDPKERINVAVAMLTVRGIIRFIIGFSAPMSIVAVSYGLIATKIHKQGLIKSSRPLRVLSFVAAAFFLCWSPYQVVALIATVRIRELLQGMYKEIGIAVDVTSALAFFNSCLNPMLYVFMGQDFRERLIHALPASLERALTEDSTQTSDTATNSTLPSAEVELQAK

[16] = read-out: Ca2+ Mobilization EC50, Human PMN
[17] = relative fold of activation compared to vehicle (DMSO) control for 50 μM compound, N.A. = no activity was observed, read-out: TNF-α production

SMILES	EC50 [1, 16]	EC50 ([1]; read-out: [Ca2+]i EC50)	TNF-α production in murine peritoneal macrophages [2]	EC50 [3]	fold induction at 50 µM [4, 17]	Effect of Boc-2 (FPR/FPRL1 antagonist) on compound-induced TNF-α production [4]	Effect of WRW4 (FPRL1 antagonist) on compound-induced TNF-α production [4]	Effect of PTX on induced TNF-α production [4]	Effect of ActD or CHX on compound-induced TNF-α production [4]	Chemotaxis (%), Murine PMN [5]	TNF-α production in THP-1 cells [6]	AC50 [7]	IL-6 production [8]	TNF-α production in human monocyte-derived macrophages [9]	Chemotaxis (%), Human PMN [10]	AC50 [11]	EC50 [12]	Effect on cell viability [13]	TNF-α production in MonoMac6 cells [14]	further results
O=C(N/N=C/c1ccc(-c2cccc(Br)c2)o1)c1cccnc1 [Compound 1]	0.3 ± 0.2 µM	0.3 µM	induced TNF-α production in a concentration-dependent manner	24.1 ± 4.1 µM	40 to 50	inhibited	inhibited	significantly inhibited	completely inhibited	68.9 ± 7.8%	induced TNF-α production in a concentration-dependent manner	25.4 ± 4 µM	induced secretion of IL-6	induced TNF-α production in a concentration-dependent manner	67.8 ± 9.4%	0.2 ± 0.02 µM	19.1 µM	had no effect on cell viability	induced TNF-α production in a concentration-dependent manner	fold induction at 50 µM ([4]; 50 μM compound, above response to vehicle (DMSO) control, Table 5 numbering, N.A. = inactive, read-out: FI (fold-increase of macrophage TNF-α production)): 50; Determined class of macrophage TNF-α inducing activity ([4]; experimentally determined class): Active
O=C(N/N=C/c1ccc(-c2cccc(C(F)(F)F)c2)o1)c1ccc(F)cc1 [Compound 2, 4-fluoro-benzoic acid [5-(3-trifluoromethyl-phenyl)-2-furyl]methylene-hydrazide]	0.6 ± 0.4 µM	0.6 µM	induced TNF-α production in a concentration-dependent manner	2.3 ± 0.15 µM	30 to 40	inhibited	inhibited	significantly inhibited	completely inhibited	58.0 ± 1.4%	induced TNF-α production in a concentration-dependent manner	8.6 ± 2.7 µM	induced secretion of IL-6	induced TNF-α production in a concentration-dependent manner	91.3 ± 1.6%	0.2 ± 0.04 µM	18.3 µM	had no effect on cell viability	induced TNF-α production in a concentration-dependent manner	
COc1cc(/C=N\NC(=O)c2ccc3c(c2)OCO3)ccc1OCc1ccccc1 [Compound 6]	0.63 ± 0.39 µM	0.63 µM		4.2 ± 0.8 µM	5 to 8					174.8 ± 9.2%		26.9 ± 3.9 µM	failed to induce macrophage IL-6 production		98.0 ± 3.4%	38.6 ± 3.3 µM				TNF-α production, primary screening of agonists AG 1-26 ([4]; murine J774.A1 macrophages): induced modest levels of TNF-α production; EC50 [15]: 6.6 µM
